Measured values published in the NIST ThermoML archive (doi:10.1021/je050483s).
± gives the expanded uncertainty stated by the source.

What was measured:
[1] = xn = mol fraction of the nth substance listed; settings: 101 kPa, Liquid
[2] = 101 kPa, Liquid

C1CCNCC1 [piperidine] + O
speed of sound [m/s], [1]
Settings | 293 K | 303 K | 313 K | 323 K
x1 = 0.006 | 1506.5 ± 1.8 | 1528.7 ± 1.8 | 1544.8 ± 1.8 | 1555.1 ± 1.8
x1 = 0.011 | 1531.1 ± 1.8 | 1548.7 ± 1.8 | 1560.4 ± 1.8 | 1566.8 ± 1.8
x1 = 0.028 | 1590.1 ± 1.9 | 1588.3 ± 1.9 | 1584.5 ± 1.9 | 1578.3 ± 1.9
x1 = 0.057 | 1596.3 ± 1.9 | 1587.1 ± 1.9 | 1576 ± 1.9 | 1562.7 ± 1.8
x1 = 0.099 | 1593.6 ± 1.9 | 1576.5 ± 1.9 | 1557.5 ± 1.8 | 1536.6 ± 1.8
x1 = 0.18 | 1575.4 ± 1.9 | 1547.9 ± 1.9 | 1519.2 ± 1.8 | 1489.3 ± 1.8
x1 = 0.267 | 1550.2 ± 1.9 | 1517.2 ± 1.9 | 1483.5 ± 1.8 | 1449 ± 1.8
x1 = 0.354 | 1525.1 ± 1.9 | 1489.1 ± 1.9 | 1452.5 ± 1.8 | 1415.4 ± 1.8
x1 = 0.439 | 1499.8 ± 1.9 | 1461.1 ± 1.8 | 1424 ± 1.8 | 1384.9 ± 1.8
x1 = 0.523 | 1477 ± 1.9 | 1438 ± 1.8 | 1398.6 ± 1.8 | 1358.9 ± 1.8
x1 = 0.646 | 1445.3 ± 1.9 | 1405.2 ± 1.8 | 1364.8 ± 1.8 | 1324.2 ± 1.8
x1 = 0.846 | 1406.2 ± 1.9 | 1365.1 ± 1.8 | 1323.6 ± 1.8 | 1282 ± 1.8
x1 = 1 | 1384.4 ± 1.9 | 1342.3 ± 1.8 | 1299.9 ± 1.8 | 1257.4 ± 1.8

C1CCNC1 [pyrrolidine] + O
speed of sound [m/s], [1]
Settings | 293 K | 303 K | 313 K | 323 K
x1 = 0.006 | 1501.6 ± 1.5 | 1525.2 ± 1.5 | 1541.5 ± 1.5 | 1552.2 ± 1.5
x1 = 0.01 | 1517.1 ± 1.5 | 1537.1 ± 1.5 | 1551.1 ± 1.5 | 1559.7 ± 1.5
x1 = 0.022 | 1557.9 ± 1.5 | 1569.8 ± 1.5 | 1576.6 ± 1.5 | 1578.7 ± 1.5
x1 = 0.068 | 1650.5 ± 1.6 | 1635.1 ± 1.6 | 1619.3 ± 1.6 | 1602.3 ± 1.6
x1 = 0.116 | 1654.8 ± 1.6 | 1631.8 ± 1.6 | 1608 ± 1.6 | 1583.2 ± 1.6
x1 = 0.208 | 1626.3 ± 1.6 | 1596.4 ± 1.6 | 1565.5 ± 1.6 | 1533.5 ± 1.6
x1 = 0.304 | 1589.8 ± 1.6 | 1555.3 ± 1.6 | 1520 ± 1.6 | 1483.9 ± 1.6
x1 = 0.396 | 1556.7 ± 1.6 | 1519.5 ± 1.6 | 1481.6 ± 1.6 | 1443 ± 1.6
x1 = 0.483 | 1528.8 ± 1.6 | 1489.9 ± 1.6 | 1450.5 ± 1.6 | 1410.5 ± 1.6
x1 = 0.567 | 1500.3 ± 1.7 | 1458.9 ± 1.6 | 1422.2 ± 1.6 | 1377.7 ± 1.6
x1 = 0.686 | 1467.5 ± 1.7 | 1426.8 ± 1.6 | 1385.6 ± 1.6 | 1344 ± 1.6
x1 = 0.868 | 1416.6 ± 1.7 | 1375.5 ± 1.7 | 1333.8 ± 1.7 | 1291.7 ± 1.6
x1 = 1 | 1389.4 ± 1.8 | 1348 ± 1.8 | 1305.8 ± 1.7 | 1263 ± 1.7

O [water] + C1CCNC1
Settings | speed of sound [m/s]
[1], 313 K, x2 = 0 | 1529 ± 1.5

C1CCNCC1 [piperidine]
[2]
Settings | speed of sound [m/s]
293 K | 1384.4 ± 1.9
303 K | 1342.3 ± 1.8
313 K | 1299.9 ± 1.8
323 K | 1257.4 ± 1.8

O [water] + C1CCNCC1
Settings | speed of sound [m/s]
[1], 313 K, x2 = 0 | 1529 ± 1.8

C1CCNC1 [pyrrolidine]
[2]
Settings | speed of sound [m/s]
293 K | 1389.4 ± 1.8
303 K | 1348 ± 1.8
313 K | 1305.8 ± 1.7
323 K | 1263 ± 1.7
